Source: publication PMC11571215, “Optimization of Antiproliferative Properties of Triimine Copper(II) Complexes” (Journal of Medicinal Chemistry, 2024)

Assays:
[1] = Stability/solubility in RPMI culture medium by UV-vis; assay type: physicochemical; conditions: 50 μM, without phenol red and FBS, 0 to 3 h, 37 °C
Procedure: The complexes (powder form) were first dissolved in 100% (v/v) DMSO and subsequently in RPMI culture medium without phenol red and fetal bovine serum (FBS), at a final concentration of 50 μM. Absorption spectra were recorded in the wavelength range of 220–800 nm. As previously, high-energy absorption bands corresponding to π → π* and n → π* transitions with peaks between 230 and 380 nm ranges were observed, which may correspond to the aromatic rings of terpyridine.[24],[38]
Copper complex stability in a biological medium was analyzed through UV–vis spectroscopy spanning a range from 220 to 800 nm. Complexes were dissolved in 100% (v/v) DMSO and subsequently diluted with RPMI medium (without phenol red) to achieve a final concentration of 50 μM. The measurements were conducted in a quartz cuvette with a 1 cm path length. Spectral analyses were obtained after 0, 3, 6, 24, and 48 h on the Evolution 300 UV–vis spectrophotometer (Thermo Fisher Scientific in Waltham, MA, USA).

HCT116-DoxR 3D spheroids = assay: CellTox Green cytotoxicity assay in 3D spheroids; assay type: cell-based, human; conditions: 4.8 μM Cu1a or 5.8 μM Cu1b; 3, 24, 48, 72 h
Procedure: Moreover, over time a detachment of death cells from the spheroids is observed (with green cells in the periphery of the outer region of the spheroids more clearly visualized at 72 h of exposure; Figure 5B and Supplementary Figure S16B,C).
HCT116-DoxR cells were seeded at 5 × 10^4 cells/mL in super low Attachment 96-well plates (NunclonSphera U-Shaped-Bottom Microplate, Thermo Fisher Scientific, Waltham, MA, USA) and incubated at 37 °C in a humidified atmosphere with 5% (v/v) CO2, to allow spheroids formation and growth.[60],[105] To perform the cell viability study, two methods were used: the MTS assay and the CellTox assay.
For the CellTox assay, HCT116DoxR spheroids grown for 6 to 9 days were used. […] CellTox Green dye is an asymmetric cyanine dye that enters cells with compromised membrane integrity and binds to DNA, which enhances its fluorescence. […] Therefore, higher levels of fluorescence are associated with a higher number of death cells.[106] […] After 3, 24, 48, and 72 h of incubation, fluorescence images were acquired with Ti–U Eclipse inverted microscope (Nikon), with a FITC filter (excitation at 465–495 nm, in the blue region, and emission at 515–555 nm, in the green region).
The software ImageJ was used for fluorescence quantification in which the Corrected Total Cell Fluorescence (CTCF, eq 6) was determined. […]

[2] = Stability in solution by UV-vis spectrophotometry; assay type: physicochemical; conditions: c = 25 μM, spectra every 4 h for 72 h
Procedure: The stability of Cu1a-d and Cu2a-d was assessed using a spectrophotometric method. Absorption spectra of the Cu(II) complexes were collected every 4 h for 72 h in DMSO and phosphate-buffered saline (PBS) solutions (c = 25 μM) (see Figure S6 and Table S9 in ESI). The diluted solutions in a water-based medium were prepared from concentrated (50 mM) stock solutions in DMSO. […] In contrast, Cu(II) complexes with dtpy-based ligands (Cu2a–d) decomposed within a few minutes in DMSO, showing UV–vis spectra almost overlapping with those of the free ligands (Figure S7). […] In PBS, compounds Cu2a–d tended to aggregate rapidly due to the release of the organic ligand, which is insoluble in water.
Infrared spectra were performed with the KBr technique on a Nicolet iS5 FT-IR spectrophotometer in the range of 4000–400 cm^–1. Elemental analyses (C, H, N) were recorded on a Perkin–Elemer CHN–2400 analyzer. HR-ESI-MS analyses were performed on a maXis Impact Q-TOF mass spectrometer (Bruker Daltonics) or a Xevo G2 Q-TOF mass spectrometer (Waters Corporation, USA), both with an ESI ion source operating in positive-ion mode. Samples were diluted in LC-MS grade acetonitrile. The accurate mass and composition for the molecular ion adducts were calculated using Data Analysis 4.1 software (Bruker, Germany) or MassLynx software (Waters). […] The eluted compounds were monitored in the range 190–400 nm. […]

Row | SMILES | solubility/stability in RPMI culture medium [1] | cell death in spheroids (CellTox Green fluorescence) (HCT116-DoxR 3D spheroids) | stability/solubility in PBS [2]
1 | [Cl][Cu-3]12([Cl])[n+]3ccccc3-c3cc(-c4cccc5ccccc45)cc([n+]31)-c1cccc[n+]12 [Cu1a] | maintenance of solubility | the increase of cell death | no solubility issues were observed
2 | [Cl][Cu-3]12([Cl])[n+]3ccccc3-c3cc(-c4ccc5ccccc5c4)cc([n+]31)-c1cccc[n+]12 [Cu1b] | a slight reduction of its solubility from 0 to 3 h | the increase of cell death | no solubility issues were observed
